Source: patent US3937657A, “Electrowinning of copper” (Anumin Pty. Limited, priority 1971, dated 1976)
Read-outs that look alike come from different tables or passages of the source.

Columns and labels:
[1] = 2 molar sulphuric acid, 100°C; reported; cited from earlier work
[2] = Hydrolysis/decomposition of nitriles in acidified solutions; assay type: physicochemical
[3] = Solubilities of salts in acidified [2% v/v H2SO4] acetonitrile-water mixtures at 25°C (Table 3); details: 2% v/v H2SO4, water
[4] = Oxidation of stirred cuprous sulphate solutions in acidified acetonitrile-water mixtures under oxygen (Table 2); assay type: physicochemical; details: 1.5% wt Cu^+, O2 1 atm
Description: Effect of Nitrile and Acid Concentration.

[5] = acidified acetonitrile-water (10.8% ch3cn)
Procedure: Solubilities of salts in acidified [2% v/v H2 SO4 ] acetonitrile-water mixtures at 25°C.

[6] = Solubility of sulphur in refluxing acetonitrile-water-sulphuric acid; assay type: physicochemical; details: refluxing 50% acetonitrile, 45% water, 5% sulphuric acid
Procedure: c. Sulphur dissolved in refluxing 50% acetonitrile, 45% water, 5% sulphuric acid to the extent of about 0.05 gms/100 ml.

In the case of `N#CCCO` [2-hydroxycyanoethane], the “rate of hydrolysis compared with acetonitrile” value [1] is given as “comparable rate”.
For `CC#N` [Acetonitrile, acetonitrile], the “hydrolysed to acetic acid and ammonium acetate within” value ([2]; 2 molar sulphuric acid, sealed tube, 100°C) was ≤ 24 h and the “loss of acetonitrile on heating” value ([2]; acetonitrile, water, cuprous sulphate and 1N sulphuric acid, sealed tubes, 50°C, 2 months) was “had not lost detectable amounts”.
With `O=S(=O)([O-])[O-].[Cd+2]` [Cd SO4.8H2 O] the “Solubility (MX)” value ([3]; 15% v/v CH3CN) was 492 mg/mL.
For `O=S(=O)([O-])[O-].[Cu+].[Cu+]` [Cu2 SO4, cuprous sulphate], the “Time for 30% of theoretical O2 uptake” value ([4]; 10% vol CH3CN, 5% vol H2SO4, 25°C) was 95 min, the “Time for 30% of theoretical O2 uptake” value ([4]; 30% vol CH3CN, 2.5% vol H2SO4, 25°C) was 330 min and the “Time for 30% of theoretical O2 uptake” value ([4]; 30% vol CH3CN, 5% vol H2SO4, 25°C) was 300 min. For the same molecule, the “Time for 30% of theoretical O2 uptake” value ([4]; 30% vol CH3CN, 10% vol H2SO4, 25°C) was 375 min and the “Time for 30% of theoretical O2 uptake” value ([4]; 50% vol CH3CN, 5% vol H2SO4, 25°C) was 340 min.
In the case of `O.O.O.O.O.O.O.O.O.O=S(=O)([O-])[O-].O=S(=O)([O-])[O-].O=S(=O)([O-])[O-].[Fe+3].[Fe+3]` [Fe2 (SO4).9H2 O], the “Solubility (MX)” value [5] is reported as 325 mg/mL.
For `O.O.O.O.O.O.O.O=S(=O)([O-])[O-].[Ni+2]` [NiSO4.7H2 O], the “Solubility (MX)” value ([3]; 16.6% v/v CH3CN) was 231 mg/mL.
For `S1SSSSSSS1` [Sulphur, sulphur], the Sulphur dissolved [6] was “about 0.05 gms/100 ml”.
With `N#CCO` [cyanohydrin of formaldehyde] the “decomposition in the nitrile suitability tests” value ([2]; water and suitable acids, cuprous salts) was “decomposed rapidly”.
